# Laboratory results taken from ChEMBL document CHEMBL3390836, “Mannich- and LedererManasse-based analogues of the natural product S-(+)-curcuphenol as cancer proliferation and migration inhibitors” (Medchemcomm, 2012).
# How the values were obtained:
# RPMI-8226 = assay: Cytotoxicity against human RPMI8226 cells assessed as cell growth at 10 uM after 48 hrs by SRB assay relative to control; format: functional; conditions: RPMI-8226, 48 h, read-out: Activity
# CAKI-1 = assay: Cytotoxicity against human Caki1 cells assessed as cell growth at 10 uM after 48 hrs by SRB assay relative to control; format: functional; conditions: CAKI-1, 48 h, read-out: Activity
# SF-539 = assay: Cytotoxicity against human SF539 cells assessed as cell growth at 10 uM after 48 hrs by SRB assay relative to control; format: functional; conditions: SF-539, 48 h, read-out: Activity
# SK-MEL-5 = assay: Cytotoxicity against human SK-MEL-5 cells assessed as cell growth at 10 uM after 48 hrs by SRB assay relative to control; format: functional; conditions: SK-MEL-5, 48 h, read-out: Activity
# [1] = Cytotoxicity against human UACC257 cells assessed as cell growth at 10 uM after 48 hrs by SRB assay relative to control; format: functional; conditions: UACC-257, 48 h, read-out: Activity
# SW-620 = assay: Cytotoxicity against human SW620 cells assessed as cell growth at 10 uM after 48 hrs by SRB assay relative to control; format: functional; conditions: SW-620, 48 h, read-out: Activity
# MDA-MB-231 [2] = assay: Cytotoxicity against human MDA-MB-231 cells assessed as growth inhibition after 24 hrs by MTT assay; format: cell-based; conditions: MDA-MB-231, 24 h
# IGROV-1 = assay: Cytotoxicity against human IGROV1 cells assessed as cell growth at 10 uM after 48 hrs by SRB assay relative to control; format: functional; conditions: IGROV-1, 48 h, read-out: Activity
# KM12 = assay: Cytotoxicity against human KM12 cells assessed as cell growth at 10 uM after 48 hrs by SRB assay relative to control; format: functional; conditions: KM12, 48 h, read-out: Activity
# A498 = assay: Cytotoxicity against human A498 cells assessed as cell growth at 10 uM after 48 hrs by SRB assay relative to control; format: functional; conditions: A498, 48 h, read-out: Activity
# CCRF-CEM = assay: Cytotoxicity against human CCRF-CEM cells assessed as cell growth at 10 uM after 48 hrs by SRB assay relative to control; format: functional; conditions: read-out: Activity
# [3] = Cytotoxicity against human UO31 cells assessed as cell growth at 10 uM after 48 hrs by SRB assay relative to control; format: functional; conditions: UO-31, 48 h, read-out: Activity
# SNB-19 = assay: Cytotoxicity against human SNB19 cells assessed as cell growth at 10 uM after 48 hrs by SRB assay relative to control; format: functional; conditions: SNB-19, 48 h, read-out: Activity
# SK-MEL-28 = assay: Cytotoxicity against human SK-MEL-28 cells assessed as cell growth at 10 uM after 48 hrs by SRB assay relative to control; format: functional; conditions: SK-MEL-28, 48 h, read-out: Activity
# 786-0 = assay: Cytotoxicity against human 786-0 cells assessed as cell growth at 10 uM after 48 hrs by SRB assay relative to control; format: functional; conditions: 786-0, 48 h, read-out: Activity
# MCF7 [4] = assay: Growth inhibition of human MCF7 cells after 72 hrs by MTT assay; format: functional, cell-based; conditions: MCF7, 72 h
# SNB-75 = assay: Cytotoxicity against human SNB75 cells assessed as cell growth at 10 uM after 48 hrs by SRB assay relative to control; format: functional; conditions: SNB-75, 48 h, read-out: Activity
# NCI-H460 = assay: Cytotoxicity against human NCI-H460 cells assessed as cell growth at 10 uM after 48 hrs by SRB assay relative to control; format: functional; conditions: NCI-H460, 48 h, read-out: Activity
# LOX IMVI = assay: Cytotoxicity against human LOXIMVI cells assessed as cell growth at 10 uM after 48 hrs by SRB assay relative to control; format: functional; conditions: read-out: Activity
# [5] = Cytotoxicity against human UACC62 cells assessed as cell growth at 10 uM after 48 hrs by SRB assay relative to control; format: functional; conditions: UACC-62, 48 h, read-out: Activity
# HL-60(TB) = assay: Cytotoxicity against human HL-60(TB) cells assessed as cell growth at 10 uM after 48 hrs by SRB assay relative to control; format: functional; conditions: HL-60, 48 h, read-out: Activity
# [6] = Cytotoxicity against human OVCAR5 cells assessed as cell growth at 10 uM after 48 hrs by SRB assay relative to control; format: functional; conditions: OVCAR-5, 48 h, read-out: Activity
# [7] = Cytotoxicity against human HCT15 cells assessed as cell growth at 10 uM after 48 hrs by SRB assay relative to control; format: functional; conditions: HCT-15, 48 h, read-out: Activity
# MDA-MB-468 = assay: Cytotoxicity against human MDA-MB-468 cells assessed as cell growth at 10 uM after 48 hrs by SRB assay relative to control; format: functional; conditions: MDA-MB-468, 48 h, read-out: Activity
# [8] = Cytotoxicity against human OVCAR8 cells assessed as cell growth at 10 uM after 48 hrs by SRB assay relative to control; format: functional; conditions: OVCAR-8, 48 h, read-out: Activity
# [9] = Cytotoxicity against human SKOV3 cells assessed as cell growth at 10 uM after 48 hrs by SRB assay relative to control; format: functional; conditions: SK-OV-3, 48 h, read-out: Activity
# MDA-MB-231 [10] = assay: Growth inhibition of human MDA-MB-231 cells after 72 hrs by MTT assay; format: functional, cell-based; conditions: MDA-MB-231, 72 h
# [11] = Cytotoxicity against human EKVX cells assessed as cell growth at 10 uM after 48 hrs by SRB assay relative to control; format: functional; conditions: read-out: Activity
# [12] = Cytotoxicity against human HCT116 cells assessed as cell growth at 10 uM after 48 hrs by SRB assay relative to control; format: functional; conditions: HCT-116, 48 h, read-out: Activity
# K562 = assay: Cytotoxicity against human K562 cells assessed as cell growth at 10 uM after 48 hrs by SRB assay relative to control; format: functional; conditions: K562, 48 h, read-out: Activity
# A549 = assay: Cytotoxicity against human A549 cells assessed as cell growth at 10 uM after 48 hrs by SRB assay relative to control; format: functional; conditions: A549, 48 h, read-out: Activity
# MCF7 [13] = assay: Cytotoxicity against human MCF7 cells assessed as cell growth at 10 uM after 48 hrs by SRB assay relative to control; format: functional; conditions: MCF7, 48 h, read-out: Activity
# SF-295 = assay: Cytotoxicity against human SF295 cells assessed as cell growth at 10 uM after 48 hrs by SRB assay relative to control; format: functional; conditions: SF-295, 48 h, read-out: Activity
# NCI-H23 = assay: Cytotoxicity against human NCI-H23 cells assessed as cell growth at 10 uM after 48 hrs by SRB assay relative to control; format: functional; conditions: NCI-H23, 48 h, read-out: Activity
# ACHN = assay: Cytotoxicity against human ACHN cells assessed as cell growth at 10 uM after 48 hrs by SRB assay relative to control; format: functional; conditions: read-out: Activity
# MDA-MB-231 [14] = assay: Antimigratory activity against human MDA-MB-231 cells after 24 hrs by wound-healing assay; format: functional, cell-based; conditions: MDA-MB-231, 24 h
# [15] = Cytotoxicity against human PC3 cells assessed as cell growth at 10 uM after 48 hrs by SRB assay relative to control; format: functional; conditions: PC-3, 48 h, read-out: Activity
SMILES,growth at 10 µM (RPMI-8226),growth at 10 µM (CAKI-1),growth at 10 µM (SF-539),growth at 10 µM (SK-MEL-5),growth at 10 µM [1],growth at 10 µM (SW-620),IC50 (MDA-MB-231 [2]),growth at 10 µM (IGROV-1),growth at 10 µM (KM12),growth at 10 µM (A498),growth at 10 µM (CCRF-CEM),growth at 10 µM [3],growth at 10 µM (SNB-19),growth at 10 µM (SK-MEL-28),growth at 10 µM (786-0),IC50 (MCF7 [4]),growth at 10 µM (SNB-75),growth at 10 µM (NCI-H460),growth at 10 µM (LOX IMVI),growth at 10 µM [5],also measured
COc1ccc(CCN2COc3c([C@@H](C)CCC=C(C)C)ccc(C)c3C2)cc1OC,-10%,8%,25%,-96%,3%,-59%,> 20 µM,-44%,-2%,7%,14%,10%,67%,-44%,-59%,6.7 µM,61%,-58%,-65%,19%,growth at 10 µM (HL-60(TB)): 18%; growth at 10 µM [6]: 47%; growth at 10 µM [7]: 2%; growth at 10 µM (MDA-MB-468): -70%; growth at 10 µM [8]: 24%; growth at 10 µM [9]: 59%; IC50 (MDA-MB-231 [10]): 16.3 µM; growth at 10 µM [11]: 33%; growth at 10 µM [12]: -43%; growth at 10 µM (K562): 13.1%; growth at 10 µM (A549): 51%; growth at 10 µM (MCF7 [13]): 4%; growth at 10 µM (SF-295): -18%; growth at 10 µM (NCI-H23): -29%; growth at 10 µM (ACHN): 41%; IC50 (MDA-MB-231 [14]): 9.5 µM; growth at 10 µM [15]: -25%
CC(C)=CCC[C@H](C)c1ccc(C)c2c1OCN(CC1CCNCC1)C2,23.7%,80.2%,73%,30%,24.6%,28%,> 20 µM,78.7%,38.4%,64%,26.7%,60.5%,73%,86%,-60.1%,8.1 µM,62%,24.6%,-70.5%,63.5%,growth at 10 µM (HL-60(TB)): 13.8%; growth at 10 µM [6]: 76%; growth at 10 µM [7]: 39.8%; growth at 10 µM (MDA-MB-468): 7.48%; growth at 10 µM [8]: 75.3%; growth at 10 µM [9]: 87%; IC50 (MDA-MB-231 [10]): 14.9 µM; growth at 10 µM [11]: 81%; growth at 10 µM [12]: -37.2%; growth at 10 µM (K562): 0.57%; growth at 10 µM (A549): 54.1%; growth at 10 µM (MCF7 [13]): 36%; growth at 10 µM (SF-295): 80%; growth at 10 µM (NCI-H23): 79%; growth at 10 µM (ACHN): 64%; IC50 (MDA-MB-231 [14]): 8.1 µM; growth at 10 µM [15]: 59.4%
